The text below walks through data of patent US5698522A, “6-position modified decapeptide LHRH antagonists” (Abbott Laboratories, priority 1995, dated 1997).

What is called Kb is the affinity of an antagonist, worked out from how it opposes an agonist.

Where a SMILES comes first, the peptide text is derived from it. Side-chain parts run from the residue outwards. [ ]: non-standard residue; d: D form. The star is where a group is joined. NMePhe(4-NH(5-NH2-Trz-3-yl)) = CN[C@@H](Cc1ccc(Nc2n[nH]c(N)n2)cc1)C(=O)O; Shikimoyl = O=C(C1=C[C@@H](O)[C@@H](O)[C@H](O)C1)*; dPhe(4-Cl) = N[C@H](Cc1ccc(Cl)cc1)C(=O)O; d2Nal = N[C@H](Cc1ccc2ccccc2c1)C(=O)O; Lys(iPr) = CC(C)NCCCC[C@H](N)C(=O)O; NMeY = CN[C@@H](Cc1ccc(O)cc1)C(=O)O; d3Pal = N[C@H](Cc1cccnc1)C(=O)O; Nicotinoyl = O=C(c1cccnc1)*; 2Furoyl = O=C(c1ccco1)*; azaGly = NNC(=O)O

In the assay the target is T1, LHRH receptor (Rattus norvegicus, UniProt P30969).
T1 construct: endogenous in cells
T1 sequence (P30969 1-327): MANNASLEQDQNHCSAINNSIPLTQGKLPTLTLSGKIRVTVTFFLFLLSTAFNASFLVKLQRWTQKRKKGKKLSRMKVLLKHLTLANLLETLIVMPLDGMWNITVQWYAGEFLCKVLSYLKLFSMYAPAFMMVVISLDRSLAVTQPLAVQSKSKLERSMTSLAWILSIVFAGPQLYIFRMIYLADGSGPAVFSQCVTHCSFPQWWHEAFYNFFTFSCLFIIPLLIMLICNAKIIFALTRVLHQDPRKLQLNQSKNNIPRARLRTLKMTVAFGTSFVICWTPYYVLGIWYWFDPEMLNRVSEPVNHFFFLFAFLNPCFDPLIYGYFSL
Put plainly: in vitro LHRH antagonist potency (pA2) against the agonist leuprolide. Format: cell-based. Conditions: negative logarithm of the antagonist concentration which shifts the response curve produced by the agonist leuprolide to two-fold higher concentration. A digest of the protocol:
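Functional antagonism against the agonist leuprolide. pA2 is the negative log of antagonist concentration that shifts the leuprolide response curve to twofold higher concentration.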

Turning to `CC(=O)N[C@H](Cc1ccc2ccccc2c1)C(=O)N[C@H](Cc1ccc(Cl)cc1)C(=O)N[C@H](Cc1cccnc1)C(=O)N[C@@H](CO)C(=O)N(C)[C@@H](Cc1ccc(O)cc1)C(=O)N[C@H](CCCCNC(=O)[C@@H](Cc1c[nH]cn1)NC(=O)C1=C[C@@H](O)[C@@H](O)[C@H](O)C1)C(=O)N[C@@H](CC(C)C)C(=O)N[C@@H](CCCNC(=N)N)C(=O)N1CCC[C@H]1C(=O)N[C@H](C)C(N)=O` [Example 48h, NAc-D2Nal^1 -D4ClPhe^2 -D3Pal^3 -Ser^4 -NMeTyr^5 -DLys(N-epsilon-D-His-Shikimyl)^6 -Leu^7 -Arg^8 -Pro^9 -DAla^10 NH2] (Ac-[d2Nal][dPhe(4-Cl)][d3Pal]S[NMeY][dK]([dH-Shikimoyl])LRP[dA]-NH2), the antagonist dissociation constant (Kb) is 0.038 nM.

Consider `CC(=O)N[C@H](Cc1ccc2ccccc2c1)C(=O)N[C@H](Cc1ccc(Cl)cc1)C(=O)N[C@H](Cc1cccnc1)C(=O)N[C@@H](CO)C(=O)N(C)[C@@H](Cc1ccc(Nc2n[nH]c(N)n2)cc1)C(=O)N[C@H](CCCCNC(=O)NNC(=O)c1cccnc1)C(=O)N[C@@H](CC(C)C)C(=O)N[C@@H](CCCCNC(C)C)C(=O)N1CCC[C@H]1C(=O)N[C@H](C)C(N)=O` [Example 46, NAc-D2Nal^1 -D4ClPhe^2 -D3Pal^3 -Ser^4 -NMePhe(Atz)^5 -DLys(N-epsilon-Azagly-Nicotinyl)^6 -Leu^7 -Lys(N-epsilon-Isopropyl)^8 -Pro^9 -DAla^10 NH2] (Ac-[d2Nal][dPhe(4-Cl)][d3Pal]S[NMePhe(4-NH(5-NH2-Trz-3-yl))][dK]([azaGly-Nicotinoyl])L[Lys(iPr)]P[dA]-NH2), for which the Kb is 0.011 nM.

For `CC(=O)N[C@H](Cc1ccc2ccccc2c1)C(=O)N[C@H](Cc1ccc(Cl)cc1)C(=O)N[C@H](Cc1cccnc1)C(=O)N[C@@H](CO)C(=O)N(C)[C@@H](Cc1ccc(O)cc1)C(=O)N[C@H](CCCCNC(=O)CNC(=O)c1ccco1)C(=O)N[C@@H](CC(C)C)C(=O)N[C@@H](CCCNC(=N)N)C(=O)N1CCC[C@H]1C(=O)N[C@H](C)C(N)=O` [Example 18, NAc-D2Nal^1 -D4ClPhe^2 -D3Pal^3 -Ser^4 -NMeTyr^5 -DLys(N-epsilon-Gly-2Furoyl)^6 -Leu^7 -Arg^8 -Pro^9 -DAla^10 NH2] (Ac-[d2Nal][dPhe(4-Cl)][d3Pal]S[NMeY][dK]([Gly-2Furoyl])LRP[dA]-NH2), the Kb was 0.00309 nM.

Consider `CC(=O)N[C@H](Cc1ccc2ccccc2c1)C(=O)N[C@H](Cc1ccc(Cl)cc1)C(=O)N[C@H](Cc1cccnc1)C(=O)N[C@@H](CO)C(=O)N(C)[C@@H](Cc1ccc(O)cc1)C(=O)N[C@H](CCCCNC(=O)[C@@H](Cc1cccnc1)NC(=O)C1=C[C@@H](O)[C@@H](O)[C@H](O)C1)C(=O)N[C@@H](CC(C)C)C(=O)N[C@@H](CCCNC(=N)N)C(=O)N1CCC[C@H]1C(=O)N[C@H](C)C(N)=O` [Example 38f, NAc-D2Nal^1 -D4ClPhe^2 -D3Pal^3 -Ser^4 -NMeTyr^5 -DLys(N-epsilon-D3Pal-Shikimyl)^6 -Leu^7 -Arg^8 -Pro^9 -DAla^10 NH2] (Ac-[d2Nal][dPhe(4-Cl)][d3Pal]S[NMeY][dK]([d3Pal-Shikimoyl])LRP[dA]-NH2), for which the Kb is 0.0214 nM.

With `CC(=O)N[C@H](Cc1ccc2ccccc2c1)C(=O)N[C@H](Cc1ccc(Cl)cc1)C(=O)N[C@H](Cc1cccnc1)C(=O)N[C@@H](CO)C(=O)N(C)[C@@H](Cc1ccc(O)cc1)C(=O)N[C@H](CCCCNC(=O)CNC(=O)c1cccnc1)C(=O)N[C@@H](CC(C)C)C(=O)N[C@@H](CCCNC(=N)N)C(=O)N1CCC[C@H]1C(=O)N[C@H](C)C(N)=O` [Example 10, NAc-D2Nal^1 -D4ClPhe^2 -D3Pal^3 -Ser^4 -NMeTyr^5 -DLys(N-epsilon-Gly-Nicotinyl)^6 -Leu^7 -Arg^8 -Pro^9 -DAla^10 NH2] (Ac-[d2Nal][dPhe(4-Cl)][d3Pal]S[NMeY][dK]([Gly-Nicotinoyl])LRP[dA]-NH2), the Kb was 0.00501 nM.
